The NIST ThermoML archive (doi:10.1016/j.tca.2016.12.008)
Values joined by “and” are separate entries in the source; they are usually repeats but may differ in a detail not shown here. Equal values may be shown once. ± gives the expanded uncertainty stated by the source.

Experiments:
[1] = for Normal melting temperature: DTA
[2] = Molar enthalpy of transition or fusion; conditions: Crystal; DSC

CC(C)(C)C(=O)Oc1ccc2ccccc2c1-c1c(OC(=O)C(C)(C)C)ccc2ccccc12 [(1,1'-binaphthalene)-2,2'-diyl bis(2,2-dimethylpropanoate)]
Normal melting temperature ([1]; Crystal 1): 123.80 ± 0.5 °C
Triple point temperature ([1]; Crystal 2, DSC): 389.55 ± 1.3 K

Oc1ccc2ccccc2c1-c1c(O)ccc2ccccc12 [(1,1'-binaphthalene)-2,2'-diol]
Molar enthalpy of transition or fusion [2]: 7.46 ± 0.215 kcal/mol
Normal melting temperature ([1]; Crystal): 215.40 ± 0.5 °C

CC(C)(C)C(=O)Oc1ccc2ccccc2c1-c1c(OC(=O)C(C)(C)C)ccc2ccccc12
Molar enthalpy of transition or fusion [2]: 6.81 ± 0.191 kcal/mol
mass density ([1]; 293 K, 101.33 kPa, Crystal, X-ray diffraction): 1173 ± 6 kg/m3
Normal melting temperature ([1]; Crystal): 156.20 ± 0.9 °C and 155.50 ± 0.5 °C
Glass transition temperature ([1]; Glass, DSC): 25.00 ± 2 °C

Oc1ccc2ccccc2c1-c1c(O)ccc2ccccc12 [(S)-(1,1'-binaphthalene)-2,2'-diol]
Molar enthalpy of transition or fusion [2]: 7.39 ± 0.167 kcal/mol
Normal melting temperature ([1]; Crystal): 209.20 ± 0.5 °C and 208.00 ± 0.5 °C
